According to patent publication EP1270568A1, “1-methyl-4-(3-ethoxy-9h-thioxanthene-ylidene)-piperidine and its use as 5-HT2B and/or H1 antagonist” (Biofrontera Pharmaceuticals AG, priority 2001, dated 2003):

Key:
[1] = molecular target: T1, human 5-HT2B receptor (Homo sapiens, UniProt P41595); assay: Cloned human 5-HT2B receptor binding assay ([3H]-5HT); design: expressed in transfected cells; host or cells: HEK 293 cells, transiently transfected; membrane preparation; conditions: HEK 293 cells transiently transfected with human 5-HT2B receptor, [3H]5-HT 4 to 5 nM, 37°C 30 min; result in words only
Procedure: The following describes an in vitro binding assay utilizing cloned 5-HT2B receptors radiolabelled with [^3H]-5HT.
HEK 293 cells transiently transfected with an expression plasmid pXMD1-hu2B encoding the human 5-HT2B receptor (see Schmuck et al., FEBS Lett., 1994, 342, 85-90) were used as described previously (Schmuck et al., Eur. J. Pharmacol., 1996, 8, 959-967). Two days after transfection cells were harvested, pelleted at 500g for 5 min at 4°C, gently resuspended in ice-cold buffer1 (50 mM TRIS pH 7.7, 4 mM CaCl2) and homogenized using a Polytron PT 1200 tissue homogenizer (position 6 for 30 s). Cells were pelleted at 50,000g. 4°C for 10 min, washed with buffer1 and pelleted again. The final pellet was resuspended in incubation buffer (50 mM TRIS pH 7.7, 4 mM CaCl2, 10 µM pargyline and 0.1 % by weight ascorbic acid). The binding assay consisted of 300 µl of membrane suspension (protein concentration = 0.3 to 0.5 mg/ml), 150 µl of competing drug and 50 µl of [^3H]5-HT at a final concentration of 4 to 5 nM. The mixture was incubated at 37°C for 30 min and the assay terminated by rapid filtration and two washing steps with 5 ml of cold 20 mM Tris-HCl pH = 7.5, and 154 mM NaCl over Whatman GFB filters. Filters were counted by liquid scintillation. Non-specific binding was determined in the presence of an excess of 5-HT (100 µM). […] Results are expressed as pKi values. […]

[2] = molecular target: T1, human 5-HT2B receptor; assay: 5-HT2A, 5-HT2B, 5-HT2C receptor binding methods (counter screen for selectivity); design: expressed in transfected cells; host or cells: HEK293 cells; conditions: HEK293 cells, [3H]-5HT approximately 0.4 nM, 120 min at 4°C; result in words only
Procedure: 5-HT2A receptors were labelled with [^3H]ketanserin in human cortex, in HEK293 cells expressing a cloned human 5-HT2A receptor and in HEK293 cells expressing the rat 5-HT2A receptor. For competition binding studies the ligand concentration was approximately 0.1 nM. For saturation binding studies concentrations of radioligand ranged from 0.01 nM to 2.0 nM. Assays were conducted in 0.5 ml of assay buffer (50 mM Tris-HCl, 4 mM calcium chloride, 0.1 % by weight ascorbic acid) (pH 7.4 at 4°C). Non-specifc binding was defined with […] unlabelled ketanserin. After a 60 min incubation at 32°C, membranes were harvested onto filters treated with 0.1 % by weight of polyethylenimine and the bound radioactivity was determined.
Human 5-HT2B receptors were labelled in HEK293 cells as described above. except that the radioligand was [^3H]-5HT and that the assay buffer contained pargyline in a concentration of 10 mM and 0.1 % by weight of ascorbic acid. […]
Competition radioligand binding data was analyzed using a four parameter logistic equation and iterative curve-fitting techniques to obtain estimates of the IC50 and Hill slope. Kd values, determined from saturation binding studies were then used to calculate inhibition dissociation constants (Ki).

[3] = molecular target: T2, human H1 receptor (Homo sapiens, UniProt P35367); assay: Human histamine H1 receptor functional assay ([3H]-inositol phosphate formation); type: cell-based; design: expressed in transfected cells; conditions: transiently transfected HEK-293 cells, histamine-stimulated [3H]-inositol phosphate formation; result in words only
Procedure: For the measurement of the [^3H]-inositol phosphate formation transiently transfected HEK-293 cells were seeded in 24 well plates and labeled to equilibrium with myo-[2-^3H]-inositol (3 ìCi/ml) for an additional 24 hours in growth medium. The medium was aspirated and cells were washed once with 500 µl HBS-buffer (130 mM NaCl, 900 µM NaH2PO4, 800 µM MgSO4, 5.4 mM KCl, 1.8 mM CaCl2, 25 mM Glucose in 20 mM HEPES pH 7.4). Two min after applying 20 mM Li^+ the cells were stimulated by addition of histamine in HBS-buffer. The incubation was stopped by aspiration off the culture medium and the addition of cold 10 mM formic acid. [^3H]inositol phosphates were isolated by anion exchange chromatography (see Seuwen et al., 1988, EMBO J., 7, 161-168). The pKB value was calculated according to the formula: pKB = log (A'/A - 1) - log [B], where A'/A is the ratio of the agonist concentrations (EC50 in the presence / EC50 in the absence of antagonist) and [B] the concentration of antagonist.

[4] = molecular target: T2, human H1 receptor; assay: Cloned human H1, H2, H3 (and H4) receptor binding assay ([3H]-mepyramine for H1); design: expressed in transfected cells; host or cells: COS-7 cells, transiently transfected; cell homogenates; conditions: COS-7 cell homogenates, 1 nM [3H]-mepyramine, 30 min at 25°C; result in words only
Procedure: COS-7 cells were transiently transfected with an expression plasmid pCineohH1, pCineohH2, pCineohH3 and pCineohH4 encoding the human Histamine H1, H2 H3 or H4 receptor, respectively. Transfected cells were harvested after 48 h, homogenized in ice-cold 50 mM Na2/potassium phosphate buffer (pH 7.4) and used for radioligand binding studies. Cell homogenates (40 - 50 µg of protein) were incubated for 30 min at 25°C in 50 mM Na2/potassium phosphate buffer (pH 7.4) in 400 µl with the various concentrations of either [^3H]-mepyramine, [^3H]-thiotidine, [^3H]-R-α-Methylhistamine, and [^3H]-pyramilamine for cells expressing recombinant human H1, H2, H3 and H4 receptors, respectively. The nonspecific binding was defined in the presence of 1 µM mianserin. In displacement studies, cell homogenated were incubated either with 1 nM [^3H]-mepyramine, 15 nM [^3H]-thiotidine, 0.5 nM [^3H]-R-α-Methylhistamine, or 15 nM [^3H]-pyramilamine and increasing concentrations of competing ligands. The incubations were stopped by rapid dilution with 3 ml of ice-cold 50 mM Na2/potassium phosphate buffer (pH 7.4). The bound radioactivity was seperated by filatration through Whatman GF/C filters that had been treated with 0.3 % polyethyleneimine. Filters were washed twice in 3 ml of buffer and radioactivity retained on the filters was measured by liquid scinitllation counting. […]

[5] = molecular target: T3, 5-HT2B receptor (Rattus norvegicus, UniProt P30994); assay: 5-HT2B receptor tissue based functional assay in rat stomach fundus longitudinal muscle; type: cell-based; conditions: dextral shift of agonist concentration-response curve, result in words only
T3 construct: Strips of longitudinal muscle were obtained from the stomach fundus of male Sprague Dawley rats; from tissue; host or cells: rat stomach fundus longitudinal muscle strips (male Sprague Dawley)
Procedure: The following describes an in vitro functional assay characterizing 5-HT receptors (the putative 5-HT2B) in rat stomach fundus longitudinal muscle (Baxter et al., Brit. J. Pharmacol. 1994, 112, 323-331).
Strips of longitudinal muscle were obtained from the stomach fundus of male Sprague Dawley rats. The mucosa was removed and the strips were suspended with a resting tension of 1 g in oxygenated (95% O2 /5% CO2) Tyrode solution at 37°C. The composition of the Tyrode solution was as follows (mM): NaCl 136.9; KCl 2.7; NaH2PO4 0.4; MgCl2 1.0; glucose 5.6; NaHCO3 11.9; CaCl2 1.8. […]
Effects of drugs were monitored by tension transducers and recorded on polygraph recorders. Tissue response was measured as changes in isometric tension (g). The mean potency (EC50) and maximum response were evaluated by standard iterative curve fitting procedures.
Effects of antagonists were determined by measuring dextral shifts to the agonist concentration-response curve after equilibration of the antagonists for at least 1 h. Concentration ratios were measured at half maximal response levels and single concentration antagonist affinities were determined by the equation: KB =(antagonist concentration)/(concentration ratio) [formula]

T1 sequence (P41595 whole entry): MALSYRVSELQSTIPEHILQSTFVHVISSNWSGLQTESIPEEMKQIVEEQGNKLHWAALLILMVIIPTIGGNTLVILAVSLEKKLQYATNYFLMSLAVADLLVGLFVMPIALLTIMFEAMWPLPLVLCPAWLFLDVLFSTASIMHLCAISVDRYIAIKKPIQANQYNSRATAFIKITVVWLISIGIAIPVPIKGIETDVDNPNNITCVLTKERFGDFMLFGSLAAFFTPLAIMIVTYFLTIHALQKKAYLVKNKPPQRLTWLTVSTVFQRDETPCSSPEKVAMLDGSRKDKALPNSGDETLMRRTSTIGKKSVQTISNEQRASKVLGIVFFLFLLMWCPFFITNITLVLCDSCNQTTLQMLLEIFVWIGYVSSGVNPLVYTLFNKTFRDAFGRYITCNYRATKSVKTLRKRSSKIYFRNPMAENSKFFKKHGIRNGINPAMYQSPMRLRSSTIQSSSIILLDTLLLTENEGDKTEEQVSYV
T2 sequence (P35367 whole entry): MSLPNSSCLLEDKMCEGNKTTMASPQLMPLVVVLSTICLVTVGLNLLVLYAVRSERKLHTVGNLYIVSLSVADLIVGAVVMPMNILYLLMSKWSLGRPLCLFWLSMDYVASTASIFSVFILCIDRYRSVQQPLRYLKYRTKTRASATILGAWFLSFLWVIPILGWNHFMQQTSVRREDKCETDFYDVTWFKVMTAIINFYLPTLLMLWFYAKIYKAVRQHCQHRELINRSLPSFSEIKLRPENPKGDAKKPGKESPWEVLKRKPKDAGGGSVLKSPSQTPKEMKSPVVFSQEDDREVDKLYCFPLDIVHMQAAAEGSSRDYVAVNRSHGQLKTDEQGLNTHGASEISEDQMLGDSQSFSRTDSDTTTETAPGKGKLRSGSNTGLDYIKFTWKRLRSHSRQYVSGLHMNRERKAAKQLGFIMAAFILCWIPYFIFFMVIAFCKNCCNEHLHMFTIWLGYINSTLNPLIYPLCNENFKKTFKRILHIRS
T3 sequence (P30994 whole entry): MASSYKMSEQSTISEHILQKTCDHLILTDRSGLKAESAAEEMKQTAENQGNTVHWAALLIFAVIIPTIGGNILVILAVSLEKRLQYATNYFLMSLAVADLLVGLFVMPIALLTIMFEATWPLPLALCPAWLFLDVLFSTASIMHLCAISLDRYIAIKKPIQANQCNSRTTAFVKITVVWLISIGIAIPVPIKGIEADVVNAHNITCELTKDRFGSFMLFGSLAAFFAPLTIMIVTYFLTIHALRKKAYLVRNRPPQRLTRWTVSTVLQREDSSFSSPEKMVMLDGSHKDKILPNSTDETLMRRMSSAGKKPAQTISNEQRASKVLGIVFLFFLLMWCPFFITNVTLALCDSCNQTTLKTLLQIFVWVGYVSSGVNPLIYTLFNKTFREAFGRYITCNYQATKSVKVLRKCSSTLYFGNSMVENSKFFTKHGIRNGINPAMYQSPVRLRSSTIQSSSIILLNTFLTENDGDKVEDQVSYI

Structure (SMILES): CCOc1ccc2c(c1)Sc1ccccc1C2=C1CCN(C)CC1 [1-methyl-4-(3-ethoxy-9H-thioxanthene-9-ylidene)-piperidine]
- affinity for the 5-HT2B receptor [1]: found to have affinity for the 5-HT2B receptor
- affinity for the 5-HT2B receptor [2]: found to have affinity for the 5-HT2B receptor
- antagonist at the human H1 receptor [3]: found to be an antagonist at the human H1 receptor
- affinity for the human H1 receptor [4]: found to have affinity for the human H1 receptor
- antagonist at the 5-HT2B receptor [5]: found to be an antagonist at the 5-HT2B receptor
